For assay [1], the target named is T1, Sentrin-specific protease 8 (Homo sapiens, UniProt Q96LD8).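 Further: luminescence read-out of SENP8 inhibition, dose-response confirmation following an ultra-high-throughput screen.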
T1 sequence (Q96LD8 whole entry): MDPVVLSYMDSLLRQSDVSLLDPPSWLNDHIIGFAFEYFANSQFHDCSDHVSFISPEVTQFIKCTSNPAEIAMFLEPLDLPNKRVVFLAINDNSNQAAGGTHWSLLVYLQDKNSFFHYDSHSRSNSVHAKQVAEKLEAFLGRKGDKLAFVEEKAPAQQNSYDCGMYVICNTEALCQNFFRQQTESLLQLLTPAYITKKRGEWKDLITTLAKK
Format: functional.

Assay [2] in a line: Luminescence Cell-Based Dose Response HTS to Identify Activators of Luciferase Translation or Activity in H4 […] Cells. [Related pubchem assays: 1829 (Project Summary), 1814 (Primary HTS)]. Format: functional.
The nature of assay [3]: Luminescence Cell-Based Dose Confirmation HTS to Identify Activators of 5'UTR Stem-Loop Driven Alpha-Synuclein mRNA Translation in H4 Neuroglioblastoma Cells. [Related pubchem assays: 1829 (Project Summary), 1814 (Primary HTS)]. Format: functional.
In assay [4] the target is T2, Sentrin-specific protease 6 (Homo sapiens, UniProt Q9GZR1).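 Further: Luminescence-based dose-response confirmatory assay of SENP6 inhibition, following up an ultra-high-throughput screen.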
T2 sequence (Q9GZR1 whole entry): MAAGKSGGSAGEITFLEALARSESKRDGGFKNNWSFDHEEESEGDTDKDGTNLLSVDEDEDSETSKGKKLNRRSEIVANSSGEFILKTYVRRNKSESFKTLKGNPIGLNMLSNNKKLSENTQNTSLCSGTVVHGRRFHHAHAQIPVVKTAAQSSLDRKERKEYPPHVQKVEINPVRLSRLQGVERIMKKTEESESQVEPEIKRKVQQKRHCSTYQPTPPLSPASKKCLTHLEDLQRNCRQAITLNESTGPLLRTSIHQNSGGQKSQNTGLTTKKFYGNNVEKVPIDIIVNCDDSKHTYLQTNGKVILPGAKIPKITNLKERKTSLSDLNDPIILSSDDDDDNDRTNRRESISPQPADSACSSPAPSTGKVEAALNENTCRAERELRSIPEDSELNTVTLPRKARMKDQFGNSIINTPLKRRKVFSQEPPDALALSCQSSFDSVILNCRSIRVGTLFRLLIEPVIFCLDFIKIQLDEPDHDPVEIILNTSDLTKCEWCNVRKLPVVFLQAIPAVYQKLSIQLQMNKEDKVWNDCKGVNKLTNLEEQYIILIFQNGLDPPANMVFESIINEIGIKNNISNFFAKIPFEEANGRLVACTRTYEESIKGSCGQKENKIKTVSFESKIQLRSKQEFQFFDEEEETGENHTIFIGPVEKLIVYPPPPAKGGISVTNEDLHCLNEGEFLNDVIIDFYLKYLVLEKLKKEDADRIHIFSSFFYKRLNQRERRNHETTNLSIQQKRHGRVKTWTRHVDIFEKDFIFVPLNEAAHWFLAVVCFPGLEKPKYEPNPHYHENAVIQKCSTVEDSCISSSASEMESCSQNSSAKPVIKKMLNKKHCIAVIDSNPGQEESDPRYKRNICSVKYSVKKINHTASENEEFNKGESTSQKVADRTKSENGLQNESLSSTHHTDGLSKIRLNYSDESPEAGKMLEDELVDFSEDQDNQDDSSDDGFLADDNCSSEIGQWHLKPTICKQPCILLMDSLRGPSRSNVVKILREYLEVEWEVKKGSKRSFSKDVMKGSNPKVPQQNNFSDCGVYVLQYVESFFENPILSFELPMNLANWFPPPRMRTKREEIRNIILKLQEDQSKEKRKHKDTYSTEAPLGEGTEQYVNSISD
Format: functional.

A further assay concerns the target T3, Caspase-3 (Homo sapiens, UniProt P42574).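 Further: Dose-response selectivity test against caspase-3 for candidate inhibitors of sentrin-specific proteases (SENPs).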
T3 sequence (P42574 whole entry): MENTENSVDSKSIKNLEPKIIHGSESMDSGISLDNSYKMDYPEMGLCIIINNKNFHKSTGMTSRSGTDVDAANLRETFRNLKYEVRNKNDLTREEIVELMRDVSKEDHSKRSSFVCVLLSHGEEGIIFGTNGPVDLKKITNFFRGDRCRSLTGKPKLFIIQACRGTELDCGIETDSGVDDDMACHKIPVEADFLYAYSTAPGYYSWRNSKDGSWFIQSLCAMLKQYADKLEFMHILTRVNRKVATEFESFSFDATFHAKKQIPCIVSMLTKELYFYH
Format: functional.

The target in assay [5] is T4, Sentrin-specific protease 7 (Homo sapiens, UniProt Q9BQF6).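 Further: Luminescence-based dose-response confirmation of ultra-high-throughput screening hits, measuring inhibition of SENP7.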
T4 sequence (Q9BQF6 whole entry): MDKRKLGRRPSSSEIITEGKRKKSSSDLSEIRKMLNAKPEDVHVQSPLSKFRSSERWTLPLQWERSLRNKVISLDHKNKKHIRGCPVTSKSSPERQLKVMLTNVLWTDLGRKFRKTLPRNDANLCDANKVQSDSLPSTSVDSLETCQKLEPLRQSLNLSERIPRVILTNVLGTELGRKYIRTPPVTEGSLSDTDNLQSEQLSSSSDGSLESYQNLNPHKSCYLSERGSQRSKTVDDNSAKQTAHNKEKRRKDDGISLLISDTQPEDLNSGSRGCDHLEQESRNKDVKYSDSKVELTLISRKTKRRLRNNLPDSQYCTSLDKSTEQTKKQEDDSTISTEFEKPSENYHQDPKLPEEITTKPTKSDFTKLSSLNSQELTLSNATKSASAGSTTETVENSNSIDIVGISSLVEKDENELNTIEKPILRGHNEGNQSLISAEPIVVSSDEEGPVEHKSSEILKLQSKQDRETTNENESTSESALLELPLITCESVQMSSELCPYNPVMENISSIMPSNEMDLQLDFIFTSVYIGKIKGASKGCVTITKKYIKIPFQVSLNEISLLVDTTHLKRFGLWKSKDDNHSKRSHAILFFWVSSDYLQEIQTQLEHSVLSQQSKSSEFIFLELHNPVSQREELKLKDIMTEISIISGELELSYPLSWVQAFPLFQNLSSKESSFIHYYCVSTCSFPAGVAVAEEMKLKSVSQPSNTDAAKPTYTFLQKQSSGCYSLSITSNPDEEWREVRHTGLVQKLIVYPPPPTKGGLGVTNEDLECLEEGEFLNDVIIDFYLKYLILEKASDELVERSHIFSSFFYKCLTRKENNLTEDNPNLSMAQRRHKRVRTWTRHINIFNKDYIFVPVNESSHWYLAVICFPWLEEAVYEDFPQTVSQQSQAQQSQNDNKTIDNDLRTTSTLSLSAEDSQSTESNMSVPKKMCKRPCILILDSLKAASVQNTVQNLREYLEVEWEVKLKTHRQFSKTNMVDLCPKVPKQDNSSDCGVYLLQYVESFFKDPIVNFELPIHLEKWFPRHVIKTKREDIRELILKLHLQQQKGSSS
Format: functional.

The subject of another assay is H4. In words: Luminescence Cell-Based Dose Response HTS to Identify Activators of 5'UTR Stem-Loop Driven Prion Protein mRNA Translation in H4 Neuroglioblastoma Cells. [Related pubchem assays: 1829 (Project Summary), 1814 (Primary HTS)]. Format: functional. The note with it: Homo sapiens.
Assay [6] has as its target T5, Adenosylmethionine-8-amino-7-oxononanoate aminotransferase (Mycobacterium tuberculosis, UniProt P9WQ81).
T5 sequence (P9WQ81 whole entry): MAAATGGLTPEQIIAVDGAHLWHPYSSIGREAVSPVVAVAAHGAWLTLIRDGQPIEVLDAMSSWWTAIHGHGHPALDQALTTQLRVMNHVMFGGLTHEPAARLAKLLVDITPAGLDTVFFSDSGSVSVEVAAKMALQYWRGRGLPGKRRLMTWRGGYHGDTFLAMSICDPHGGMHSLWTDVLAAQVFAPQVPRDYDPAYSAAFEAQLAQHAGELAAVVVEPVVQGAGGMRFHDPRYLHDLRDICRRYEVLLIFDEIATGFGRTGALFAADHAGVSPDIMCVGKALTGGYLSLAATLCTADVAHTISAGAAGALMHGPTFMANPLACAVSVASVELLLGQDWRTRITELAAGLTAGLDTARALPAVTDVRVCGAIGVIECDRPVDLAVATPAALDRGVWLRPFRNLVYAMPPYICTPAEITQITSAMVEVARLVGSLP
Put plainly: Mycobacterium tuberculosis BioA enzyme inhibitor Measured in Biochemical System Using Plate Reader - 2163-02_Inhibitor_Dose_CherryPick_Activity. Format: functional, Mycobacterium tuberculosis UT205.

The nature of assay [7]: blockers of CRF-binding protein–CRF-R2 complex – cell-based, uHTS hits, 384-well, dose response (AID 651639). Format: functional, Homo sapiens. The note with it: read-out: IC50_Mean.
For assay [8], the target named is T6, Corticotropin-releasing factor receptor 2/Corticotropin-releasing factor-binding protein (Homo sapiens, UniProt P24387+Q13324).
T6 sequence (Q13324 whole entry): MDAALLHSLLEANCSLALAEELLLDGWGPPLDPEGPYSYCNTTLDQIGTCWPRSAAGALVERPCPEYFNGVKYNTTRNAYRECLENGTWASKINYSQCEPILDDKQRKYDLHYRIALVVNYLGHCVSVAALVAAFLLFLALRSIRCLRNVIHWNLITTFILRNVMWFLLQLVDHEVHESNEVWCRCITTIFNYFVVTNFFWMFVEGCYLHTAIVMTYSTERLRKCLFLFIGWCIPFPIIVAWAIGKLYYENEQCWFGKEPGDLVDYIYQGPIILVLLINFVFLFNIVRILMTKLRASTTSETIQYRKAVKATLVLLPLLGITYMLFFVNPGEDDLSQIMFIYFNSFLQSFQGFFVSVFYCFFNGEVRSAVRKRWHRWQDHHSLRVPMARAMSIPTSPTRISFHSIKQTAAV
T6 sequence (P24387 whole entry): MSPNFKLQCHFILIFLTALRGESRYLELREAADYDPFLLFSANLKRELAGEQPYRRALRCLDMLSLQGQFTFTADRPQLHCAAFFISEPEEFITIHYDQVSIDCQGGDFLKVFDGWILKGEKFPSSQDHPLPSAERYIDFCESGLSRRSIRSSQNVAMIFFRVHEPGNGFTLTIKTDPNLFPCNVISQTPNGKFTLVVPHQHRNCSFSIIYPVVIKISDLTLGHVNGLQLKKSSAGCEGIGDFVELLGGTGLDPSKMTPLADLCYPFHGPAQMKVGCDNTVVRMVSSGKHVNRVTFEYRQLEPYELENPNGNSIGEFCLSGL
In words: activators of CRF receptor 2 with binding protein – uHTS hits, confirmation (AID 602473). Format: functional. The following applies: read-out: EC50_Mean.

Assay [9] has as its target T6, Corticotropin-releasing factor receptor 2/Corticotropin-releasing factor-binding protein. In words: Dose Response confirmation of uHTS hits for small molecule antagonists of the CRF-binding protein and CRF-R2 receptor complex. Format: functional. The following applies: read-out: IC50_Mean.
In assay [10] the target is T7, Apoptotic protease-activating factor 1 (Homo sapiens, UniProt O14727).
T7 sequence (O14727 whole entry): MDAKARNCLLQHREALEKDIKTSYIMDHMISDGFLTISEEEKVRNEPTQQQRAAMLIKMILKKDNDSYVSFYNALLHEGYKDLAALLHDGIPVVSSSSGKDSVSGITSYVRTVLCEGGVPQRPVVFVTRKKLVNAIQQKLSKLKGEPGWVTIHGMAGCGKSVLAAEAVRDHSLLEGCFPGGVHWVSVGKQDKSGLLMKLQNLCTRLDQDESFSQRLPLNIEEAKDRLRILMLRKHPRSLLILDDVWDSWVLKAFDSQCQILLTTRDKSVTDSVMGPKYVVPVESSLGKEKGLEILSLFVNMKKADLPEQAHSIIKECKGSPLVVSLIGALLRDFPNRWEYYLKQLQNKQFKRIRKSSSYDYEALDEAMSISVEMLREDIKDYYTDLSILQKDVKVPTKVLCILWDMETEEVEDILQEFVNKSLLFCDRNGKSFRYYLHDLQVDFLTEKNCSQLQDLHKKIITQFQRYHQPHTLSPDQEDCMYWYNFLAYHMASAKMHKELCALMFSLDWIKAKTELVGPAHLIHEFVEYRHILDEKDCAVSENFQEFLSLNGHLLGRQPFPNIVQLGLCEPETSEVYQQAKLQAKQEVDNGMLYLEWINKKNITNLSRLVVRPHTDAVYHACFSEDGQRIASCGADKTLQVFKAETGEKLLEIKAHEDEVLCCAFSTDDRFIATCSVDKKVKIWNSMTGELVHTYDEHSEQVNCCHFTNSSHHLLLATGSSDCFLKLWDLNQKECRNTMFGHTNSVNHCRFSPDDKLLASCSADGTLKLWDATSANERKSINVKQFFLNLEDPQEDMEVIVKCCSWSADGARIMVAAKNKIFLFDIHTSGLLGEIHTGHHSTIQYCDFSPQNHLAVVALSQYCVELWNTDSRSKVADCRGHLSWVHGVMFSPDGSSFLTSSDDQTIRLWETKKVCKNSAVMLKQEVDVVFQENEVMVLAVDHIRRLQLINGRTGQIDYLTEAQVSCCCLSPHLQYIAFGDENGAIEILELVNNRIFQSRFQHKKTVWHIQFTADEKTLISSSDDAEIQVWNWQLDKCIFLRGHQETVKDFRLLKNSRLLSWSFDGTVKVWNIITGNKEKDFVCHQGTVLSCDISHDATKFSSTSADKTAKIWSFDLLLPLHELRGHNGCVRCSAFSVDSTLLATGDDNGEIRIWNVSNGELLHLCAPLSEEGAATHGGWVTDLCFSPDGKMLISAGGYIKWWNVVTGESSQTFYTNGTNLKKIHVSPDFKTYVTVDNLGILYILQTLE
Format: functional.

The nature of assay [11]: NIH3T3 cell viability loss – ATP luminescence, mouse fibroblasts, counter-screen, dose response (AID 2010).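 Further: cells exposed to compound for about 90 hours before reading.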 Format: functional, cell-based. For orientation: Counterscreens check selectivity or assay interference.
The nature of assay [12]: Trypanosoma cruzi growth suppression in host cells – NIH3T3 host cells, beta-gal luminescence, confirmation (AID 2044).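 Further: intracellular parasites grown in NIH/3T3 mouse fibroblasts as host cells; luminescent beta-galactosidase reporter signal from transgenic T. cruzi replicating inside host cells; inhibitors lower the luminescence signal.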 Format: functional, cell-based.

Activity calls are given as the source filed them.

This is an account of results in ChEMBL document CHEMBL1201862, “PubChem BioAssay data set” (2004).

In general, AC50 refers to the concentration at which the activity in the assay is half-maximal.

On to `COc1ccc(-c2noc(Cc3cccs3)n2)cc1`, for which the IC50 in [1] is 25 µM (active); in assay [4], 31.8 µM (active); on Caspase-3, 27.3 µM (active); in [5], 9.93 µM (active). The results for the EC50 (in [2]; in assay [3]; in the assay with H4) were 0.501 µM (active), 24.9 µM (active) and > 120 µM (not active), respectively.

With `O=C(Nc1ccc(N2CCOCC2)c(Cl)c1)c1cccnc1`, in assay [6], the AC50 is 13.3 µM (active).

Regarding `CCN(CC)C1Oc2cc3c(cc2C(c2cccc(OC)c2O)C1C)OCO3` (stereo unspecified), the IC50 was 5.28 µM (active) in assay [7] and 2.99 µM (active) in assay [9]. The EC50 in assay [8] is > 53 µM (inactive).

Regarding `COc1ccc(C/N=C/c2[nH]c3ccc(Br)c(Cl)c3c2O)cc1`, the IC50 in [10] is 59.2 µM (active). The EC50 is > 60 µM (not active) in assay [11] and 1.31 µM (active) in [12].

With `CN(Cc1ccccc1)C(=O)CCS(=O)(=O)c1ccc2c(c1)NC(=O)CS2`, the AC50 in [6] is 3.51 µM (active).

On to `O=C(C[C@@H]1C[C@@H]2c3cc(NC(=O)c4cccnc4)ccc3O[C@@H]2[C@@H](CO)O1)NCc1cccnc1`, for which the half-maximal activity concentration (AC50) in assay [6] was 10.7 µM (active).
